Measurements as given in patent publication US20250025452A1 (Clearside Biomedical, Inc., priority 2023, published 2025).

Test: Solubility (product profile)
Format: physicochemical
Conditions: API
Description: Further information providing the solubility, particle size, viscosity, and other product profile parameters of exemplary CLS-AX compositions (active pharmaceutical ingredient (API); and drug product) are provided in Table 1C.

Solubility (solvent): DMSO
Structure (SMILES): CNC(=O)c1ccccc1Sc1ccc2c(/C=C/c3ccccn3)n[nH]c2c1 [Axitinib]
